System: tactile allodynia in OXPT-treated mice
Test: Oxaliplatin (OXPT)-induced peripheral neuropathy, von Frey test
Format: in vivo
Method: In order to investigate the analgesic activity of the most promising compound 30 in a neuropathic pain model, we tested it in oxaliplatin (OXPT)-induced peripheral neuropathy, in which mechanical and cold allodynia result from impaired function of ion channels, among others. The early phase of neuropathic pain appears hours after OXPT administration, while the late phase develops days after OXPT. Thus, we tested compound 30 3 h and 7 days after the injection of OXPT. We investigated the influence of compound 30 on tactile allodynia using the von Frey method. Three hours after the administration of OXPT we observed a significant decrease in the mean value of force that caused paw withdrawal reaction (1.89 ± 0.04 g) (64.2% of the baseline) compared to nontreated animals (2.94 ± 0.06 g) (the baseline). Seven days after OXPT administration, the pain threshold was 2.00 ± 0.03 (68.0% of the baseline). […] In the late phase, the values of pain threshold were as follows 2.18 ± 0.06 g, 2.60 ± 0.08 g, and 2.91 ± 0.05 g, which correspond to 74.1%, 88.4%, and 98.9% of the baseline value.
The experimental groups consisted of 6–12 adult male Albino Swiss mice (CD-1, 18–25 g). Each animal was tested only once. Immediately after the assay, the animals were sacrificed by cervical dislocation. Behavioral measurements were observed by trained observers. The in vivo antinociceptive assays were in accordance with Polish regulations and European Union Directive of 22 September 2010 (2010/63/EU). All procedures were carried out according to the rules of the International Council on Laboratory Animal Science (ICLAS) and were approved by the Local Ethical Committee in Cracow, Poland (approval No 104/2015, 111/2016, and 179/2017). The tested substances were suspended in 1% aqueous solution of Tween-80 and were injected i.p. 30 min prior to the test. Control group animals (negative control) were administered with an appropriate amount of vehicle (Tween-80, 1% aqueous solution, i.p.) 30 min prior to the test.
The experimental in vivo procedures were previously reported for the formalin test; compounds 4 and 30 were tested in three doses—40, 80, 120 mg/kg (4), and 20, 40, 80 mg/kg (30). Before formalin application, different groups of animals were injected i.p. with vehicle (10 mL/kg, negative control). The in vivo procedure for the model of capsaicin-induced nociception was previously reported; the animals were pretreated with vehicle (10 mL/kg, negative control) and the dose–response of investigated compounds was evaluated at 40, 80, 120 mg/kg (4), and 20, 40, 80 mg/kg (30). The in vivo procedure for the model of OXPT-induced peripheral neuropathy was previously reported; the mice with developed tactile allodynia were pretreated i.p. with test compound 30 (20, 40, and 80 mg/kg) and vehicle.
Data are presented as means ± standard error of the mean (SEM). The GraphPad Prism Software (v.5) was used to analyze the vast majority of data. Statistically significant differences between groups were calculated using one-way analysis of variance (ANOVA) and the post hoc Dunnett’s multiple comparison test or two-way analysis of variance (ANOVA). The criterion for significance was set at p < 0.05.

[1] = early phase (3 h after OXPT), 20 mg/kg i.p.
[2] = early phase (3 h after OXPT), 40 mg/kg i.p.
[3] = early phase (3 h after OXPT), 80 mg/kg i.p.
[4] = late phase (7 days after OXPT), 20 mg/kg i.p.
[5] = late phase (7 days after OXPT), 40 mg/kg i.p.
[6] = late phase (7 days after OXPT), 80 mg/kg i.p.

O=C(NCCc1cccc(OC(F)(F)F)c1)C(c1ccccc1)N1C(=O)CCC1=O (stereo not drawn) [Compound 30, 2-(2,5-Dioxopyrrolidin-1-yl)-2-phenyl-N-(3-(trifluoromethoxy)phenethyl)acetamide]
pain sensitivity threshold (von Frey, force causing paw withdrawal) [1]: 2.26 ± 0.08 g | pain threshold, % of the baseline value [1]: 76.8% | pain sensitivity threshold (von Frey, force causing paw withdrawal) [2]: 2.49 ± 0.05 g | pain threshold, % of the baseline value [2]: 84.7% | pain sensitivity threshold (von Frey, force causing paw withdrawal) [3]: 2.97 ± 0.05 g | pain threshold, % of the baseline value [3]: 101.0% | pain threshold (von Frey) [4]: 2.18 ± 0.06 g | pain threshold, % of the baseline value [4]: 74.1% | pain threshold (von Frey) [5]: 2.60 ± 0.08 g | pain threshold, % of the baseline value [5]: 88.4% | pain threshold (von Frey) [6]: 2.91 ± 0.05 g | pain threshold, % of the baseline value [6]: 98.9%
